# Data published in US20150031674A1, “SERINE/THREONINE KINASE INHIBITORS” (GENENTECH, INC., priority 2013, published 2015).
# Tests used:
# [1] = system: group I PAKs in EBC1 cells (MEK1 phosphorylation at S298); assay: Cellular PAK IC50 Assay: MEK1 phosphorylation at S298 by HTRF; format: cell-based; details: Homo sapiens, EBC-1, 2 h treatment, media containing 0.1% FBS, phospho-MEK1 (S298) HTRF
# Experimental: Cellular PAK IC50 Assay Protocol
# Group I PAKs (PAK1-3) are activated upon binding to the Rho GTPases, Rac1 and Cdc42. Activated group I PAKs phosphorylate MEK1 at Serine 298 (S298), one of the two sites in the catalytic domain that is important for stable association between Raf and MEK1 and subsequent MAPK activation. The inhibition of group I PAKs in EBC1 cells is assessed by detecting changes in the level of MEK1 phosphorylation at S298 using homogenous time-resolved fluorescence (HTRF). Inhibitory activity was estimated by treating 2×10^4 EBC1 cells for 2 h with PAK inhibitors in media containing 0.1% FBS. Following inhibitor treatment, cells were lysed with 25 μL of 1× cellular kinase lysis buffer (Cisbio) containing 1× cellular kinase blocking reagent (Cisbio). Cellular lysis was carried out at 4° C. for 2 h with constant shaking before lysate (16 μL) was transferred to white 384-well ProxiPlates™ (Perkin Elmer). Anti-total MEK1 antibody labeled with Europium cryptate donor (1 ng/well) (Cell Signaling Technologies catalog number 2352) and anti-phospho MEK1 (S298) antibody labeled with d2 acceptor (Cell Signaling Technologies catalog number 9128) (10 ng/well) were prepared in 1× detection buffer (CisBio) and added to each well of the assay plate and allowed to incubate at RT overnight. The following day the fluorescence emission from each well was measured in EnVision® (Perkin Elmer) at an excitation of 330 nm and dual emission wavelengths of 615 nm and 665 nm. The signal in each well at 665 nm was multiplied by 10,000 and divided by the signal in the same well at 615 nm to obtain a ratio. Ratio values ([665·10,000]÷615) were plotted as a function of the concentration of compound to determine IC50 values.
# [2] = molecular target: human recombinant PAK1-KD protein (Homo sapiens, UniProt Q13153); assay: PAK1-KD (Kinase Domain) IC50 Zlyte Assay (FRET peptide substrate phosphorylation); details: Z'-LYTE, Biological Example 1
# human recombinant PAK1-KD protein, sequence (Q13153 270-521 limits assumed): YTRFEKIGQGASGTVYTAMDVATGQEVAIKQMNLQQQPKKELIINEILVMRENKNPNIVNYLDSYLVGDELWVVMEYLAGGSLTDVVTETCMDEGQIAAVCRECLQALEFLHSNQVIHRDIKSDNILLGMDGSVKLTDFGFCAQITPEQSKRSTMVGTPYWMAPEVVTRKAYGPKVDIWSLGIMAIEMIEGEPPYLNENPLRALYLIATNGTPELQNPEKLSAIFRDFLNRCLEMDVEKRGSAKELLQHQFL
SMILES,IC50 [1] [nM],Ki [2] [nM]
"Cc1cccc(-c2ccc(-c3cc4cnc(N)nc4n(CCC4CNCCO4)c3=O)c(Cl)c2)n1 (racemic) [Example I-127, 2-Amino-6-[2-chloro-4-(6-methyl-2-pyridyl)phenyl]-8-(2-morpholin-2-ylethyl)pyrido[2,3-d]pyrimidin-7-one]",38.2,3.8
"CCNc1ncc2cc(-c3ccc(-c4cncc(C)n4)cc3Cl)c(=O)n(CCC3CCCN3)c2n1 (single isomer, unassigned) [Example I-19]",286,26.8
"CCNc1ncc2cc(-c3ccc(-c4cncc(C)n4)cc3Cl)c(=O)n(CCC3CNCCO3)c2n1 (single isomer, unassigned) [Example I-22]",63.5,8.9
"CCNc1ncc2cc(-c3ccc(-c4cncc(C)n4)cc3Cl)c(=O)n(CCOC3CCNC3)c2n1 (single isomer, unassigned) [Example I-52]",156,5.6
"CCNc1ncc2cc(-c3ccc(-c4cncc(C)n4)cc3Cl)c(=O)n(CCCC(N)=O)c2n1 [Example I-3, 4-[6-[2-Chloro-4-(6-methylpyrazin-2-yl)phenyl]-2-(ethylamino)-7-oxo-pyrido[2,3-d]pyrimidin-8-yl]butanamide]",506,47.4
"CCNc1ncc2cc(-c3ccc(-c4cncc(C)n4)cc3Cl)c(=O)n(CCN3CCNCC3)c2n1 [Example I-4, 6-(2-Chloro-4-(6-methylpyrazin-2-yl)phenyl)-2-(ethylamino)-8-(2-(piperazin-1-yl)ethyl)pyrido[2,3-d]pyrimidin-7(8H)-one]",96,6.4
"CCNc1ncc2cc(-c3ccc(-c4cncc(C)n4)cc3Cl)c(=O)n(C[C@H]3CC[C@H](N(C)C)CC3)c2n1 [Example I-10, 6-(2-Chloro-4-(6-methylpyrazin-2-yl)phenyl)-8-(((1r,4r)-4-(dimethylamino)cyclohexyl)methyl)-2-(ethylamino)pyrido[2,3-d]pyrimidin-7(8H)-one]",274,21.3

# More lines, in order of falling IC50 [1], values ahead:
IC50 [1] [nM],Ki [2] [nM],SMILES
1500,30.9,"CCNc1ncc2cc(-c3ccc(-c4cncc(C)n4)cc3Cl)c(=O)n(CC(=O)N3CCNCC3)c2n1 [Example I-8, 6-(2-Chloro-4-(6-methylpyrazin-2-yl)phenyl)-2-(ethylamino)-8-(2-oxo-2-(piperazin-1-yl)ethyl)pyrido[2,3-d]pyrimidin-7(8H)-one]"
358,14,"Cc1cncc(-c2ccc(-c3cc4cnc(N)nc4n(C[C@H]4CC[C@H](N)CC4)c3=O)c(Cl)c2)n1 [Example I-9, 2-Amino-8-(((1r,4r)-4-aminocyclohexyl)methyl)-6-(2-chloro-4-(6-methylpyrazin-2-yl)phenyl)pyrido[2,3-d]pyrimidin-7(8H)-one]"
249,8.23,"CCNc1ncc2cc(-c3ccc(-c4cncc(C)n4)cc3Cl)c(=O)n(CCCN)c2n1 [Example I-1, 8-(3-Aminopropyl)-6-[2-chloro-4-(6-methylpyrazin-2-yl)phenyl]-2-(ethylamino)pyrido[2,3-d]pyrimidin-7-one]"
189,6.94,"CCNc1ncc2cc(-c3ccc(-c4cncc(C)n4)cc3Cl)c(=O)n(CCOC3CNC3)c2n1 [Example I-11, 8-(2-(Azetidin-3-yloxy)ethyl)-6-(2-chloro-4-(6-methylpyrazin-2-yl)phenyl)-2-(ethylamino)pyrido[2,3-d]pyrimidin-7(8H)-one]"
131,4.3,"CCNc1ncc2cc(-c3ccc(-c4cncc(C)n4)cc3Cl)c(=O)n(CCOCCN)c2n1 [Example I-12, 8-(2-(2-Aminoethoxy)ethyl)-6-(2-chloro-4-(6-methylpyrazin-2-yl)phenyl)-2-(ethylamino)pyrido[2,3-d]pyrimidin-7(8H)-one]"
108,7.1,"CCNc1ncc2cc(-c3ccc(-c4cncc(C)n4)cc3Cl)c(=O)n(CC(C)OC3CNC3)c2n1 (single isomer, unassigned) [Example I-91, 8-[2-(Azetidin-3-yloxy)propyl]-6-[2-chloro-4-(6-methylpyrazin-2-yl)phenyl]-2-(ethylamino)pyrido[2,3-d]pyrimidin-7-one]"
